Biological target: MAPK14 (UniProt Q16539)
Experiment: Inhibition of MAPK14 Kinase Activity

Sequence of MAPK14 (Q16539 whole entry, looked up): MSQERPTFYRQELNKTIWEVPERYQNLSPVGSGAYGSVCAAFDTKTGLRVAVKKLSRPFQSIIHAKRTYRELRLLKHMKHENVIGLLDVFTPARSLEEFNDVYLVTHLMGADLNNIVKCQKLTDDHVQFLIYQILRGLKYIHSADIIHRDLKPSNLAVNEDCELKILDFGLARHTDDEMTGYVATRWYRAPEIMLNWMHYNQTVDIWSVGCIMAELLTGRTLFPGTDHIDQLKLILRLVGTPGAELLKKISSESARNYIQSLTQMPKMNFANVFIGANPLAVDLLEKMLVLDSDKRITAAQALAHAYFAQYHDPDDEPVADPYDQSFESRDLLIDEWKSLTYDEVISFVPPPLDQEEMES

IC50, ≤ 5 µM:
COC(=O)CCn1cnc(-c2ccccc2)c1-c1ccc2nc(N)n(S(=O)(=O)C(C)C)c2c1
CC(C)S(=O)(=O)n1c(N)nc2ccc(-c3nc(CNCCN(C)C)[nH]c3-c3ccccc3)cc21
CC1=CC2=NC(c3ccccc3)C(c3ccc4nc(N)n(S(=O)(=O)C(C)C)c4c3)N2C=C1 (stereo not drawn)
CC(C)S(=O)(=O)n1c(N)nc2ccc(-c3c(-c4ccccc4F)ncn3C3CC3)cc21
CC(C)S(=O)(=O)n1c(N)nc2ccc(-c3c(-c4ccc(F)cc4)ncn3C3CC3)cc21
CC(C)S(=O)(=O)n1c(N)nc2ccc(-c3c(-c4ccc(F)cc4)ncn3C3CCNCC3)cc21
CC(C)S(=O)(=O)n1c(N)nc2ccc(-c3c(-c4ccccc4)ncn3CC3CC3)cc21
Cc1cc(F)ccc1-c1[nH]c(-c2ccc(F)cc2)nc1-c1ccc2nc(N)n(S(=O)(=O)C(C)C)c2c1
CC(C)S(=O)(=O)n1c(N)nc2ccc(C3C(c4ccccc4)N=C4C=CC(Cl)=CN43)cc21 (stereo not drawn)
CC(C)S(=O)(=O)n1c(N)nc2ccc(-c3nc(C4CCN(Cc5ccccc5)CC4)[nH]c3-c3ccccc3)cc21
C#Cc1nc(-c2ccccc2)c(-c2ccc3nc(N)n(S(=O)(=O)C(C)C)c3c2)n1C1CCCCC1
CC(C)S(=O)(=O)n1c(N)nc2ccc(-c3c(-c4ccccc4)ncn3-c3ccc(N)cc3)cc21
CC(C)S(=O)(=O)n1c(N)nc2ccc(-c3c(-c4ccccc4)ncn3[C@@H](CO)c3ccccc3)cc21
CC(C)S(=O)(=O)n1c(N)nc2ccc(-c3nc(-c4ccc(Cl)cc4)[nH]c3-c3ccccc3)cc21
CC(C)S(=O)(=O)n1c(N)nc2ccc(-c3c(-c4ccc(F)cc4)ncn3[C@@H](C)CO)cc21
CC(C)S(=O)(=O)n1c(N)nc2ccc(-c3c(-c4ccc(F)cc4)ncn3C3CCN(C)CC3)cc21
Cc1nc(-c2ccccc2)c(-c2ccc3nc(N)n(S(=O)(=O)C(C)C)c3c2)s1
CC(C)S(=O)(=O)n1c(N)nc2ccc(-c3nc(-c4nccs4)[nH]c3-c3ccccc3)cc21
CC(C)S(=O)(=O)n1c(N)nc2ccc(-c3nc(-c4ccccc4Cl)[nH]c3-c3ccccc3)cc21
CCOC(=O)N1CCC(n2cnc(-c3cccc(F)c3)c2-c2ccc3nc(N)n(S(=O)(=O)C(C)C)c3c2)CC1
CC(C)S(=O)(=O)n1c(N)nc2ccc(-c3nc(-c4c(F)cccc4C(F)(F)F)[nH]c3-c3ccccc3)cc21
CC(C)S(=O)(=O)n1c(N)nc2ccc(-c3nc(-c4ccc(F)cc4F)[nH]c3-c3cc(F)cc(F)c3)cc21
CC(C)S(=O)(=O)n1c(N)nc2ccc(-c3nc(-c4ccsc4)[nH]c3-c3ccc(F)cc3)cc21
CC(C)S(=O)(=O)n1c(N)nc2ccc(-c3nc(CNCCN4CCCCC4)[nH]c3-c3ccccc3)cc21
CC(C)S(=O)(=O)n1c(N)nc2ccc(-c3c(-c4ccccc4F)nc(N)n3C3CC3)cc21
CC(C)S(=O)(=O)n1c(N)nc2ccc(-c3c(-c4ccccc4)ncn3C3CCN(C)CC3)cc21
CC(C)S(=O)(=O)n1c(N)nc2ccc(-c3nc(-c4ccccc4)[nH]c3-c3ccccc3)cc21
CC(C)S(=O)(=O)n1c(N)nc2ccc(-c3[nH]n(-c4cc(F)ccc4F)c(=O)c3-c3ccccc3)cc21
CC(C)S(=O)(=O)n1c(N)nc2ccc(-c3c(-c4cccc(F)c4)ncn3Cc3cccnc3)cc21
CC(C)S(=O)(=O)n1c(N)nc2ccc(-c3nc(-c4cccc(OCCN5CCCCC5)c4)[nH]c3-c3ccccc3)cc21
CC(C)S(=O)(=O)n1c(N)nc2ccc(-c3c(-c4ccc(F)cc4F)ncn3[C@H]3CC[C@H](O)CC3)cc21
CC(C)S(=O)(=O)n1c(N)nc2ccc(-c3c(-c4ccccc4)ncn3-c3ccc([N+](=O)[O-])cc3)cc21
C#Cc1nc(-c2ccccc2F)c(-c2ccc3nc(N)n(S(=O)(=O)C(C)C)c3c2)n1C1CC1
